Data published in US20260315467A1, “PHARMACEUTICAL COMBINATION OF FAK INHIBITOR AND EGFR-TKI, AND USE” (INXMED (NANJING) CO., LTD., priority 2022, published 2026).

Assays:
lung cancer KPL cells = experiment: White light microscope observation of lung cancer KPL cells after 48 h drug incubation (Examples 1-3); format: cell-based
lung cancer cells HCC827 = experiment: Apoptosis of HCC827 cells after FAK silencing combined with AZD9291 (Annexin V, flow cytometer); format: cell-based; conditions: FAK siRNA 50 nM, then 0.3 nM AZD9291, 48 hours
Description: In an in vitro assay, siRNA technology was used to reduce the expression level of FAK, which was combined with AZD9291 for 48 hours; a flow cytometer was used to detect the apoptosis in control and FAK-silenced cells.
(§1) Assay antibodies: Recombinant Alexa Fluor® 647 Anti-Calreticulin antibody (Abcam, ab196159), Annexin V apoptosis detection kit (Invitrogen, A35110).
HCC827 cells were transfected with control siRNA or FAK siRNA at a final concentration of 50 nM, respectively. After 24 hours of transfection, 0.3 nM AZD9291 was added and the cells were treated for 48 hours. The cells were stained using the Annexin V kit and detected using a flow cytometer. The values of early and late apoptosis of the cells were compared with those of the DMSO control group, and Graphpad 8.0 was used for graphing.

Calreticulin = Calreticulin release and exposure in HCC827 cells after FAK silencing combined with AZD9291; format: cell-based; conditions: FAK siRNA 50 nM, then 0.3 nM AZD9291, 48 hours
Description: In an in vitro assay, siRNA technology was used to reduce the expression level of FAK, which was combined with AZD9291 for 48 hours; a flow cytometer was used to detect the expression of Calreticulin, the main target of ICD.
as §1
HCC827 cells were transfected with control siRNA or FAK siRNA at a final concentration of 50 nM, respectively. After 24 hours of transfection, 0.3 nM AZD9291 was added and the cells were treated for 48 hours. The Calreticulin antibody was used for fluorescent staining, and the staining results were analyzed by a flow cytometer.

colon cancer MC38 cell = experiment: In vivo anti-tumor efficacy in subcutaneous allograft tumor model of colon cancer MC38 cell in C57BL/6 mice; design: species or system mouse; conditions: PD-L1 antibody 5 mg/kg i.p. BIW
Text: Mice: Female C57BL/6 mice aged 6-8 weeks were purchased from Shanghai Slack Laboratory Animal Co., Ltd. After the animals arrived, they were raised for acclimatization in the assay environment before the assay. The animals were raised in cages (5 animals per cage) with IVC (independent air supply system) in a SPF animal room. All the cages, padding and drinking water were sterilized before use. All the experimenters wore protective clothing and latex gloves when operating in the animal room. The animal information card for each cage indicated the number, sex, strain, receiving date, administration plan, assay number, group and assay start date of the animals in the cage. […]
Colorectal cancer cells MC38 (from Nanjing Kebai Biotechnology Co., Ltd., article number: CBP60825) were maintained and passaged by InxMed (Nanjing) Co., Ltd. The cells were cultured in monolayer in vitro, and the culture conditions were DMEM medium with 10% fetal bovine serum, 37° C. and 5% CO2 incubator. […] When the cells were in exponential growth period and the saturation reached 80% to 90%, the cells were collected, counted and inoculated. […]
The diameter of a tumor was measured with a vernier caliper 3 times a week. […]
Referring to the tumor volume on the first day after grouping, the tumor growth inhibition rate TGI (%) was calculated according to the following formula. […]

[1] = Example 2, IN10018 10 μM, Almonertinib 4.7 μM, or both
[2] = Example 3, IN10018 10 μM, Alflutinib 4.7 μM, or both
[3] = Example 1, IN10018 10 μM, AZD9291 10 μM, or both

With C=CC(=O)Nc1cc(Nc2nccc(-c3cn(C4CC4)c4ccccc34)n2)c(OC)cc1N(C)CCN(C)C [Almonertinib] the “condition of cells under microscope” value (lung cancer KPL cells; [1]) was “poor condition”.
C=CC(=O)Nc1cc(Nc2nccc(-c3cn(C)c4ccccc34)n2)c(OCC(F)(F)F)nc1N(C)CCN(C)C [Alflutinib] was tested, and the “condition of cells under microscope” value (lung cancer KPL cells; [2]) was “poor condition”.
With C=CC(=O)Nc1cc(Nc2nccc(-c3cn(C)c4ccccc34)n2)c(OC)cc1N(C)CCN(C)C [AZD9291, Osimertinib] the “late apoptosis in the FAK silencing group compared with the control group” value (lung cancer cells HCC827) was “significantly enhanced”, the “condition of cells under microscope” value (lung cancer KPL cells; [3]) was “poor condition” and the “release and exposure of Calreticulin after FAK silencing” value (Calreticulin) was “significantly enhanced”. For the same compound, the TGI (colon cancer MC38 cell; day 14, AZD9291 20, IN10018 25 mg/kg p.o. QD) was 24.4% and the “Tumor volume on day 14” value (colon cancer MC38 cell; day 14 after group administration, AZD9291 20, IN10018 25 mg/kg p.o. QD, mean ± standard error of the mean) was 1518.1±728.8 mm^3.
With COc1cc(C(=O)NC2CCN(C)CC2)c(F)cc1Nc1ncc(C(F)(F)F)c(Oc2cccc3c2C(=O)N(C)C3)n1 [IN10018] the “condition of cells under microscope” value (lung cancer KPL cells; [3]) was “better condition”, the “condition of cells under microscope” value (lung cancer KPL cells; [1]) was “better condition” and the “condition of cells under microscope” value (lung cancer KPL cells; [2]) was “better condition”.
